# Measured values published in ChEMBL document CHEMBL1201862, “PubChem BioAssay data set” (2004).
# Active and inactive are the calls of the source.
# How the values were obtained:
# [1] = target: Phospholipase A2 (Homo sapiens, UniProt P04054); test: phospholipase A2 activity inhibition – biochemical, set 2, counter-screen for ATG4B inhibitor project, dose response (AID 588586); assay type: functional
# [2] = target: T1, Cysteine protease ATG4B (Homo sapiens, UniProt Q9Y4P1); test: autophagin-1 cysteine protease inhibition – biochemical, fluorescence, set 2, dose response (AID 588584); assay type: functional
# T1 sequence (Q9Y4P1 whole entry): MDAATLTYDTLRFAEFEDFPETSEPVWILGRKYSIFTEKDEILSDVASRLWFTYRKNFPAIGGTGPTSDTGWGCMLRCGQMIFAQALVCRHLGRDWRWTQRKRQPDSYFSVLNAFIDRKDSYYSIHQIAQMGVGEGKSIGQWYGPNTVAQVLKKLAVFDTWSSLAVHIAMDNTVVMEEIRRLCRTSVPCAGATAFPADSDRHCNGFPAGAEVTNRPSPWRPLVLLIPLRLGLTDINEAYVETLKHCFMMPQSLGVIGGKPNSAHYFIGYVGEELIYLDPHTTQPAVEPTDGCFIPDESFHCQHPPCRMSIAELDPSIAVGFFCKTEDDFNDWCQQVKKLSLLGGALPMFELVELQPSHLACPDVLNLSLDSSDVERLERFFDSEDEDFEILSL
# [3] = tested on: Streptococcus; test: GAS UMAA2166 growth inhibition – luminescence, BacTiterGlo, counter-screen for streptokinase expression inhibitor project, dose response (AID 1915); assay type: functional, organism-based;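 also: potency for reduction of bacterial viability or growth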
# [4] = target: T2, Sentrin-specific protease 6 (Homo sapiens, UniProt Q9GZR1); assay type: functional;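 also: Luminescence-based dose-response confirmatory assay of SENP6 inhibition, following up an ultra-high-throughput screen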
# T2 sequence (Q9GZR1 whole entry): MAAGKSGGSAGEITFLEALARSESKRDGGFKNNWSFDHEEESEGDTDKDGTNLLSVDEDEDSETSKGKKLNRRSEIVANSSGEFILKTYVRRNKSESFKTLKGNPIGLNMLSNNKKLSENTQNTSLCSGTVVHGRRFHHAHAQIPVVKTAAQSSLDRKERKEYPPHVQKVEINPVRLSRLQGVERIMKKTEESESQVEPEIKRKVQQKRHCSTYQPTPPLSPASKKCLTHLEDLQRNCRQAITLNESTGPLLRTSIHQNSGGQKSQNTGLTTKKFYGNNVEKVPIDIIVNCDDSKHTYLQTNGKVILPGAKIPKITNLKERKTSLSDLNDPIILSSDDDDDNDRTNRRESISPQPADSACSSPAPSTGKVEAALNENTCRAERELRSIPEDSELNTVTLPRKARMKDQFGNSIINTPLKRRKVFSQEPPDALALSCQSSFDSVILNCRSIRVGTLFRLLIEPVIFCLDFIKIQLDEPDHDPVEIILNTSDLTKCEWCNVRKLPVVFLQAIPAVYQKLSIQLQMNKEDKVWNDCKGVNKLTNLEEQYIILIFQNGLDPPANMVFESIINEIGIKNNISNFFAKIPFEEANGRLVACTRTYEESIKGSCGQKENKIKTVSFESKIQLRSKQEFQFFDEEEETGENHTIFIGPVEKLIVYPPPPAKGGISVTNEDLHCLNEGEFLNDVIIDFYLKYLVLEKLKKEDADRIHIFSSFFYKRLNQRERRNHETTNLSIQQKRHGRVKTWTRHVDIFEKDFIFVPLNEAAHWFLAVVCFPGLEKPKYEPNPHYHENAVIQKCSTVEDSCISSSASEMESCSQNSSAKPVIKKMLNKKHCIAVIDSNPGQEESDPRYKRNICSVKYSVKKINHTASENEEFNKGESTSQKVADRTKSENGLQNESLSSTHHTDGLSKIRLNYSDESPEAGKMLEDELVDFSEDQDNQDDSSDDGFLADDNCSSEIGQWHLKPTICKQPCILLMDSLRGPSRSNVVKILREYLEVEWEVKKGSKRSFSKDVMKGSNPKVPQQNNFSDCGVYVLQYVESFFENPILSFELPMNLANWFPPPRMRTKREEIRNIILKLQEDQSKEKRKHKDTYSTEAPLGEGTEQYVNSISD
# [5] = tested on: Streptococcus sp. 'group A'; test: Streptococcus pyogenes SK(-)GAS viability under kanamycin – luminescence, BacTiterGlo, confirmation, counter-screen for streptokinase expression inhibitor project, dose response (AID 1900); assay type: functional, organism-based
# [6] = target: T3, Caspase-3 (Homo sapiens, UniProt P42574); assay type: functional;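 also: Dose-response selectivity test against caspase-3 for candidate inhibitors of sentrin-specific proteases (SENPs)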
# T3 sequence (P42574 whole entry): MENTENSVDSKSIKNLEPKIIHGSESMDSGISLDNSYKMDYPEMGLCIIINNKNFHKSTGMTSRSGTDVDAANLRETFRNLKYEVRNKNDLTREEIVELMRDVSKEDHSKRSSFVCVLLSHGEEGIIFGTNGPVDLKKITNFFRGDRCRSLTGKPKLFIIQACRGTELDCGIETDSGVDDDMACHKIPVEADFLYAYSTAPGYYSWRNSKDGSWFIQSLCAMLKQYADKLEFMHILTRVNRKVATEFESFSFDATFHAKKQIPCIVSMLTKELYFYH
# [7] = tested on: HeLa; test: ATP-based viability loss in HeLa cells – cell-based, CellTiter-Glo luminescence, cherry-pick samples, cytotoxicity control for MITF activator project, dose response (AID 540259); assay type: functional; conditions: Homo sapiens
# [8] = target: T4, Sentrin-specific protease 8 (Homo sapiens, UniProt Q96LD8); assay type: functional;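 also: luminescence read-out of SENP8 inhibition, dose-response confirmation following an ultra-high-throughput screen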
# T4 sequence (Q96LD8 whole entry): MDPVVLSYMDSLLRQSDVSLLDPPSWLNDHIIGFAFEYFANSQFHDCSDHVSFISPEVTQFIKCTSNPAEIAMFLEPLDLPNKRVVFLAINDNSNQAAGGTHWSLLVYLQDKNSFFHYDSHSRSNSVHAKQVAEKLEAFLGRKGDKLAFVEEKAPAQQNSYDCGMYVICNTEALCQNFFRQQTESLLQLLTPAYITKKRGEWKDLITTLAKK
# [9] = target: T5, Streptokinase A (Streptococcus pyogenes serotype M1, UniProt P10520); test: viability-normalized secreted streptokinase activity reduction – plasminogen activation absorbance, OD405, dose response (AID 1914); assay type: functional, Streptococcus pyogenes M1 GAS;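 also: secreted streptokinase activity via plasminogen activation per viability signal from cell pellet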
# T5 sequence (P10520 whole entry): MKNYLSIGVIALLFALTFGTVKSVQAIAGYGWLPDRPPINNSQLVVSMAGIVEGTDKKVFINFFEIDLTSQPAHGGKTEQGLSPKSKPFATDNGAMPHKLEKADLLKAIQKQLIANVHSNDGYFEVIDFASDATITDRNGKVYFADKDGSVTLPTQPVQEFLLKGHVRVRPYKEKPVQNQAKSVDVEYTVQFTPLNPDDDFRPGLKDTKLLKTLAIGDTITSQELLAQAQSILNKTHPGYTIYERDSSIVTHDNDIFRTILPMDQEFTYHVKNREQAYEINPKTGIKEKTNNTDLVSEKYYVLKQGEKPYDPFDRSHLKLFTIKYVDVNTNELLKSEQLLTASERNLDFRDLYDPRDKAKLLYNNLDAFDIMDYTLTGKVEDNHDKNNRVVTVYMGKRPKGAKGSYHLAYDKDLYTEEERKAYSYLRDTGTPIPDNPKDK
# [10] = target: T6, Sentrin-specific protease 7 (Homo sapiens, UniProt Q9BQF6); assay type: functional;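 also: Luminescence-based dose-response confirmation of ultra-high-throughput screening hits, measuring inhibition of SENP7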
# T6 sequence (Q9BQF6 whole entry): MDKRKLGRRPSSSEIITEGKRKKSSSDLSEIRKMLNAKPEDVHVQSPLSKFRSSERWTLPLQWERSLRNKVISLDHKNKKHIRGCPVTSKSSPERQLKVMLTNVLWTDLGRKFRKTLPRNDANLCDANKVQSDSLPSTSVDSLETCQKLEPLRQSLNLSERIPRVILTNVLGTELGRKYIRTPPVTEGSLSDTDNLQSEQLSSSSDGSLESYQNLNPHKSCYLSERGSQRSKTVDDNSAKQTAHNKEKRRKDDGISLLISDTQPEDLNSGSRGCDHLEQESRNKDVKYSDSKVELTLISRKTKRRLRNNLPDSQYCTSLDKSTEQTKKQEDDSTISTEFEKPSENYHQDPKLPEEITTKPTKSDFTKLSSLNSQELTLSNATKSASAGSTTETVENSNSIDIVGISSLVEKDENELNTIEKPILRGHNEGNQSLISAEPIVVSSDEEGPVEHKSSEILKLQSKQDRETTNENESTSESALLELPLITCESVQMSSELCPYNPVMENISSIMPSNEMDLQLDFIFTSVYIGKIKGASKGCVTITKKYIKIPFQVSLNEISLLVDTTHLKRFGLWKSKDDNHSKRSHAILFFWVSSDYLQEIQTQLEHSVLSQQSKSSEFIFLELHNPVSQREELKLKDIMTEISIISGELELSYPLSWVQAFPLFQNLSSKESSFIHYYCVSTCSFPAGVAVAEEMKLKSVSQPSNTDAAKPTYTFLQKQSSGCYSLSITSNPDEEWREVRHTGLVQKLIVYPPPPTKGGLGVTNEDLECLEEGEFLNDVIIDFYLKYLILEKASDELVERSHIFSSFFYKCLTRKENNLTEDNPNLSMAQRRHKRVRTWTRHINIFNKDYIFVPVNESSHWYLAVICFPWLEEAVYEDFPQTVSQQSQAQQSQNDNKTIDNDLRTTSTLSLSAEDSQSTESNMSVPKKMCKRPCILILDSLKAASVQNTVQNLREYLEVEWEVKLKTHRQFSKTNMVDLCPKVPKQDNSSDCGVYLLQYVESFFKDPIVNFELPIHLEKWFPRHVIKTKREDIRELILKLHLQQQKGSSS
# [11] = target: T7, Tyrosine-protein phosphatase non-receptor type 7 (Homo sapiens, UniProt P35236); assay type: functional
# T7 sequence (P35236 whole entry): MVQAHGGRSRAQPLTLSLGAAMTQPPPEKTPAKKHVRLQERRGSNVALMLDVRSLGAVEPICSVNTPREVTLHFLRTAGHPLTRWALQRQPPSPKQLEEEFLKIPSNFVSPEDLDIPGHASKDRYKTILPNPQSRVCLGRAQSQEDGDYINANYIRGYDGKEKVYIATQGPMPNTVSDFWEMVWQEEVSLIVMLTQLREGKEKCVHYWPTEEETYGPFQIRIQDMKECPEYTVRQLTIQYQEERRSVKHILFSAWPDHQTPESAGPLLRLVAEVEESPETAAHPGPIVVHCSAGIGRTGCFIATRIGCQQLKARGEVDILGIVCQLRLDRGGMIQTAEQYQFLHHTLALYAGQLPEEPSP
# [12] = target: T8, Tyrosine-protein phosphatase non-receptor type 22 (Homo sapiens, UniProt Q9Y2R2); assay type: functional
# T8 sequence (Q9Y2R2 whole entry): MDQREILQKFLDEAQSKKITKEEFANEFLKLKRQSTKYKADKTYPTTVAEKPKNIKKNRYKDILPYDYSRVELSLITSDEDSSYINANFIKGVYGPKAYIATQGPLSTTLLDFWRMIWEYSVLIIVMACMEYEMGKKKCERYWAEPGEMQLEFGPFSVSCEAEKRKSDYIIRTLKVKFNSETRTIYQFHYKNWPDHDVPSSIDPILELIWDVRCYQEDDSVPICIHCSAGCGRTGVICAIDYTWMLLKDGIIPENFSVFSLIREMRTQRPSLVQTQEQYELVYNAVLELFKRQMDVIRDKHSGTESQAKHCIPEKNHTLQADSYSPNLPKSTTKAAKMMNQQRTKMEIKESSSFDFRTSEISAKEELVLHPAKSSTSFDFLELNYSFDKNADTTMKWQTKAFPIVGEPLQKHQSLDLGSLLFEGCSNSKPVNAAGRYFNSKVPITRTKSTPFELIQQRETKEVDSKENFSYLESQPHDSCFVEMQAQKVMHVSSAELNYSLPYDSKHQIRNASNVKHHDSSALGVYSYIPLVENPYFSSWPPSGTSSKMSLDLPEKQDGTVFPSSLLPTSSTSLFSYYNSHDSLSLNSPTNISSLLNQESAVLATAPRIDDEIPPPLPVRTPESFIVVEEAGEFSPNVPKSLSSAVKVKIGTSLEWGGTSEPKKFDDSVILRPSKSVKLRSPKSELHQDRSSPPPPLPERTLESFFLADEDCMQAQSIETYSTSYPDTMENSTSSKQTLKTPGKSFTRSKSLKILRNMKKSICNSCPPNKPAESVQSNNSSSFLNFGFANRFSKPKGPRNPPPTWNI
# [13] = target: T8, Tyrosine-protein phosphatase non-receptor type 22; assay type: functional; remark: listed apart in the source
# [14] = target: Delta-type opioid receptor (Homo sapiens, UniProt P41143); test: Counterscreen for agonists of heterodimerization of the mu 1 (OPRM1) and delta 1 (OPRD1) opioid receptors: Luminescence-based cell-based high throughput dose response assay to identify agonists of OPRD1 homodimerization. [Related pubchem assays (depositor defined):AID504326, AID504355, AID504692, AID504904, AID504905]; assay type: functional
# [15] = target: 5-hydroxytryptamine receptor 5A (Homo sapiens, UniProt P47898); test: Counterscreen for agonists of OPRM1-OPRD1 heterodimerization: luminescence-based cell-based high throughput dose response assay to identify agonists of 5-hydroxytryptamine (serotonin) 5A receptor (HTR5A). [Related pubchem assays (depositor defined):AID504326, AID504355, AID504692, AID504904, AID504905]; assay type: functional
# [16] = target: Mu-type opioid receptor (Homo sapiens, UniProt P35372); test: Counterscreen for agonists of heterodimerization of the mu 1 (OPRM1) and delta 1 (OPRD1) opioid receptors: Luminescence-based cell-based high throughput dose response assay to identify agonists of OPRM1 homodimerization.; assay type: functional;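 also: U2OS cells expressing OPRM1 and beta-arrestin as split beta-galactosidase partners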
# Sequence of Mu-type opioid receptor (P35372 whole entry): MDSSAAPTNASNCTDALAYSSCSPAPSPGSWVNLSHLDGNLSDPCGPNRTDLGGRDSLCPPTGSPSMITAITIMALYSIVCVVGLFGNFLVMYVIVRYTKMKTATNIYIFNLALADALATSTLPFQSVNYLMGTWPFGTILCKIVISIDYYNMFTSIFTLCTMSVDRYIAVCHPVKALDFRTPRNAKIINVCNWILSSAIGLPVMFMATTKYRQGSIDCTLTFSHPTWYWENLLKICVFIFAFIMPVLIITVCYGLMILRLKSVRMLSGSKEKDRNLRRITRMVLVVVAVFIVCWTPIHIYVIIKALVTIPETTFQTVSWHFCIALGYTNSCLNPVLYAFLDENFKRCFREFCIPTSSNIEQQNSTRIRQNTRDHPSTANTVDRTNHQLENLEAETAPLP
# Sequence of 5-hydroxytryptamine receptor 5A (P47898 whole entry): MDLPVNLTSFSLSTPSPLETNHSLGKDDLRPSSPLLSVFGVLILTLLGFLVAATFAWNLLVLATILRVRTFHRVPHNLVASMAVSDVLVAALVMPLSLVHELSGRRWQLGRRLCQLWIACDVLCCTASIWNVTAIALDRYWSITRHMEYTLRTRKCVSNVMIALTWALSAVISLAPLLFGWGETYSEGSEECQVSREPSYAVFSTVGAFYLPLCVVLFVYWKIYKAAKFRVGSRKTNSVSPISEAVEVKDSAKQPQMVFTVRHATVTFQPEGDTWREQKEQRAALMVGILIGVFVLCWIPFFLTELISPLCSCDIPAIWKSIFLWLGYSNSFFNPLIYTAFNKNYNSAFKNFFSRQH
# Sequence of Phospholipase A2 (P04054 whole entry): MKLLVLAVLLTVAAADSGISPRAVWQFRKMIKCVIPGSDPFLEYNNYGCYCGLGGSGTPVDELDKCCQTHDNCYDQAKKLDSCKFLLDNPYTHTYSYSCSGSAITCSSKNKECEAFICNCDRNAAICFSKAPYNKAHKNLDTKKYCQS
# Sequence of Delta-type opioid receptor (P41143 whole entry): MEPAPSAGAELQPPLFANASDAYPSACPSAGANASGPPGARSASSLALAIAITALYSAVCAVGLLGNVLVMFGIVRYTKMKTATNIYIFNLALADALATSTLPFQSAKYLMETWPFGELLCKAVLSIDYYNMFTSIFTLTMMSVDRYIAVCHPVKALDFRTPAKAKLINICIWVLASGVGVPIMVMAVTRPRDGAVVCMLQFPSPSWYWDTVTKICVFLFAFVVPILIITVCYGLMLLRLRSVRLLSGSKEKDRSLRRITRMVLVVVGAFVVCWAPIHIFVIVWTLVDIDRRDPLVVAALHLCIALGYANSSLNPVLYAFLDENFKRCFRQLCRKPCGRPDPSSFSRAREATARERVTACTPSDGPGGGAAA
smiles,measurement,setting,value
O=C(C1CCN(c2ncnc3c2nc2n3CCCCC2)CC1)N1CCN(c2cccc(Cl)c2)CC1,IC50,[1],11.1 µM (active)
same,IC50,[2],22.6 µM (inactive)
Cc1csc2nc(CSc3nc4ccccc4o3)c(Br)n12,EC50,[3],> 150 µM (not active)
same,IC50,[4],12.5 µM (active)
same,EC50,[5],45.5 µM (active)
same,IC50,[6],49.4 µM (active)
same,AC50,[7],42.3 µM (active)
same,IC50,[8],> 100 µM (inactive)
same,EC50,[9],> 150 µM (not active)
same,IC50,[10],16.2 µM (active)
CS(=O)(=O)N1CCc2ccc(NC(=O)C3CCCO3)cc2C1 (centres undefined),IC50,[11],> 79.4 µM (inactive)
same,IC50,[12],> 79.4 µM (inactive)
same,IC50,[13],> 79.4 µM (inactive)
CN(C)C(CNC(=O)c1cc2ccccc2o1)c1ccco1 (centres undefined),EC50,[14],> 92.5 µM (inactive)
same,EC50,[15],> 92.5 µM (inactive)
same,EC50,[16],> 92.5 µM (inactive)
COC(=O)N/N=C(\C)c1ccc2ccccc2c1OC(F)F,IC50,[11],> 79.4 µM (inactive)
same,IC50,[12],> 79.4 µM (inactive)
same,IC50,[13],> 79.4 µM (inactive)
